Ends that are not written are not given here.
Legend:
S. aureus ATCC 29213 = assay: MIC, broth dilution; format: cell-based, Staphylococcus aureus; details: Table 5; STIP3 variants, highest concentration 100 μg/mL
Outline: (§1)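 MIC defined as the lowest peptide level giving no growth after overnight standing incubation at 37° C. Bacteria at OD 6×10^−4 in cation-adjusted MH broth met 2-fold serial peptide dilutions; peptide purity 95%.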

[1] = test system: S. aureus ATCC 33592 (MRSA SCCmec type III); assay: MIC, broth dilution; format: cell-based, Staphylococcus aureus; details: Table 5; STIP3 variants, highest concentration 100 μg/mL
Outline: as §1

[2] = test system: S. aureus ATCC BAA-1683 (MRSA SCCmec type IV); assay: MIC, broth dilution; format: cell-based, Staphylococcus aureus; details: Table 5; STIP3 variants, highest concentration 100 μg/mL
Outline: as §1

[3] = test system: S. aureus ATCC BAA-2094 (MRSA SCCmec type V); assay: MIC, broth dilution; format: cell-based, Staphylococcus aureus; details: Table 5; STIP3 variants, highest concentration 100 μg/mL
Outline: as §1

[4] = test system: S. aureus ATCC BAA-2313 (MRSA SCCmec type XI); assay: MIC, broth dilution; format: cell-based, Staphylococcus aureus; details: Table 5; STIP3 variants, highest concentration 100 μg/mL
Outline: as §1

[5] = test system: S. aureus ATCC BAA-41 (MRSA SCCmec type II); assay: MIC, broth dilution; format: cell-based, Staphylococcus aureus; details: Table 5; STIP3 variants, highest concentration 100 μg/mL
Outline: as §1

[6] = test system: S. aureus ATCC BAA-42 (MRSA SCCmec type VI); assay: MIC, broth dilution; format: cell-based, Staphylococcus aureus; details: Table 5; STIP3 variants, highest concentration 100 μg/mL
Outline: as §1

[7] = test system: S. aureus ATCC BAA-44 (MRSA SCCmec type I); assay: MIC, broth dilution; format: cell-based, Staphylococcus aureus; details: Table 5; STIP3 variants, highest concentration 100 μg/mL
Outline: as §1

[8] = test system: Mannheimia haemolytica ATCC 33393; assay: MIC, broth dilution; format: cell-based; details: Table 11; highest concentration 25 μg/mL
Outline: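 Peptides (95% purity) in 2-fold dilution series were mixed with M. haemolytica diluted to OD 6×10^−4 in cation-adjusted Mueller Hinton broth and incubated standing overnight at 37 °C. MIC was the lowest concentration with no visible growth.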

C. albicans MYA-2876 = assay: MIC, YPD broth; format: cell-based, Candida albicans; details: Table 8
Outline: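 Minimum inhibitory concentrations against Candida albicans were determined in YPD broth (10 g/L yeast extract, 20 g/L peptone, 20 g/L dextrose) using peptides of 95% purity. A 180 μl volume of diluted yeast was combined with 20 μl of peptide in a 2-fold dilution series in 96-well plates, with sterile water as control, then incubated standing overnight at 37° C.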

C. albicans Y537 = assay: MIC, YPD broth; format: cell-based, Candida albicans; details: Table 8
[9] = test system: Candida duobushaemulonii AR 391; assay: MIC, YPD broth, CDC and FDA AR Candida isolate panel; format: cell-based; details: Table 9 below the line: only 200 or 100 μg/mL tested; values reported as 100 are ≤100 μg/mL
Outline: (§2)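 Broth microdilution in YPD; yeast diluted to optical density […] and mixed with 2-fold serial dilutions of peptide (95% purity), water control. Standing cultures incubated overnight at 37 °C.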

[10] = test system: Candida duobushaemulonii AR 392; assay: as above; format: cell-based; details: Table 9 below the line: only 200 or 100 μg/mL tested; values reported as 100 are ≤100 μg/mL
Outline: as §2

[11] = test system: Candida duobushaemulonii AR 394; assay: as above; format: cell-based; details: Table 9 below the line: only 200 or 100 μg/mL tested; values reported as 100 are ≤100 μg/mL
Outline: as §2

[12] = test system: Candida haemulonii AR 393; assay: as above; format: cell-based; details: Table 9 below the line: only 200 or 100 μg/mL tested; values reported as 100 are ≤100 μg/mL
Outline: as §2

[13] = test system: Candida haemulonii AR 395; assay: as above; format: cell-based; details: Table 9 below the line: only 200 or 100 μg/mL tested; values reported as 100 are ≤100 μg/mL
Outline: as §2

Candida krusei AR 397 = assay: as above; format: cell-based; details: Table 9 below the line: only 200 or 100 μg/mL tested; values reported as 100 are ≤100 μg/mL
Outline: as §2

[14] = test system: Candida lusitaniae AR 398; assay: as above; format: cell-based; details: Table 9 below the line: only 200 or 100 μg/mL tested; values reported as 100 are ≤100 μg/mL
Outline: as §2

Kodamae ohmeri AR 396 = assay: as above; format: cell-based; details: Table 9 below the line: only 200 or 100 μg/mL tested; values reported as 100 are ≤100 μg/mL
Outline: as §2

[15] = test system: Saccharomyces cerevisiae AR 399; assay: as above; format: cell-based; details: Table 9 below the line: only 200 or 100 μg/mL tested; values reported as 100 are ≤100 μg/mL
Outline: as §2

[16] = test system: Saccharomyces cerevisiae AR 400; assay: as above; format: cell-based; details: Table 9 below the line: only 200 or 100 μg/mL tested; values reported as 100 are ≤100 μg/mL
Outline: as §2

Substance | MIC S. aureus ATCC 29213 (S. aureus ATCC 29213) [µg/mL] | MIC S. aureus ATCC 33592 (III) [1] [µg/mL] | MIC S. aureus ATCC BAA 1683 (IV) [2] | MIC S. aureus ATCC BAA 2094 (V) [3] [µg/mL] | MIC S. aureus ATCC BAA 2313 (XI) [4] | MIC S. aureus ATCC BAA 41 (II) [5] [µg/mL] | MIC S. aureus ATCC BAA 42 (VI) [6] | MIC S. aureus ATCC BAA 44 (I) [7] [µg/mL] | MIC (μg/mL) M. haemolytica [8] [µg/mL] | MIC C. albicans MYA-2876 (C. albicans MYA-2876) | MIC C. albicans Y537 (C. albicans Y537) | MIC (μg/mL) Candida duobushaemulonii AR 391 [9] | MIC (μg/mL) Candida duobushaemulonii AR 392 [10] | MIC (μg/mL) Candida duobushaemulonii AR 394 [11] | MIC (μg/mL) Candida haemulonii AR 393 [12] | MIC (μg/mL) Candida haemulonii AR 395 [13] | MIC (μg/mL) Candida krusei AR 397 (Candida krusei AR 397) | MIC (μg/mL) Candida lusitaniae AR 398 [14] | MIC (μg/mL) Kodamae ohmeri AR 396 (Kodamae ohmeri AR 396) | MIC (μg/mL) Saccharomyces cerevisiae AR 399 [15] | further results
TVRALVKWILRTVAKFA [STIP3-20, TVRALVKWILRTVAKFA] | 25 | 25 | 25 µg/mL | 25 | 50 µg/mL | 12.5 | 25 µg/mL | 25 | 25 | > (> symbol indicates that no inhibition was observed at the highest concentration of peptide tested: 100 μg/mL) | > (> symbol indicates that no inhibition was observed at the highest concentration of peptide tested: 100 μg/mL) | > (values below the line were determined using two concentrations of peptide 200 or 100 μg/mL) | > (values below the line were determined using two concentrations of peptide 200 or 100 μg/mL) | > (values below the line were determined using two concentrations of peptide 200 or 100 μg/mL) | > (values below the line were determined using two concentrations of peptide 200 or 100 μg/mL) | > (values below the line were determined using two concentrations of peptide 200 or 100 μg/mL) | > (values below the line were determined using two concentrations of peptide 200 or 100 μg/mL) | > (values below the line were determined using two concentrations of peptide 200 or 100 μg/mL) | > (values below the line were determined using two concentrations of peptide 200 or 100 μg/mL) | > (values below the line were determined using two concentrations of peptide 200 or 100 μg/mL) | MIC (μg/mL) Saccharomyces cerevisiae AR 400 [16]: 200 µg/mL
TVKKLVKWILKTVKKFA [STIP3-18, TVKKLVKWILKTVKKFA] | 100 | 100 | > (no inhibition was observed at the highest concentration of peptide tested: 100 μg/mL for the STIP3 variants) | 100 | > (no inhibition was observed at the highest concentration of peptide tested: 100 μg/mL for the STIP3 variants) | 100 | > (no inhibition was observed at the highest concentration of peptide tested: 100 μg/mL for the STIP3 variants) | 100 | 6.25 | 50 µg/mL | > (> symbol indicates that no inhibition was observed at the highest concentration of peptide tested: 100 μg/mL) | ≤ 100 µg/mL | ≤ 100 µg/mL | ≤ 100 µg/mL | > (values below the line were determined using two concentrations of peptide 200 or 100 μg/mL) | > (values below the line were determined using two concentrations of peptide 200 or 100 μg/mL) | ≤ 100 µg/mL | ≤ 100 µg/mL | > (values below the line were determined using two concentrations of peptide 200 or 100 μg/mL) | ≤ 100 µg/mL | MIC (μg/mL) Saccharomyces cerevisiae AR 400 [16]: ≤ 100 µg/mL
TVGGLVKWILKTVKKFA [STIP3-3, TVGGLVKWILKTVKKFA] | 25 | 25 | 50 µg/mL | 25 | 50 µg/mL | 25 | 50 µg/mL | 25 | 12.5 | 25 µg/mL | 50 µg/mL | ≤ 100 µg/mL | > (values below the line were determined using two concentrations of peptide 200 or 100 μg/mL) | > (values below the line were determined using two concentrations of peptide 200 or 100 μg/mL) | > (values below the line were determined using two concentrations of peptide 200 or 100 μg/mL) | > (values below the line were determined using two concentrations of peptide 200 or 100 μg/mL) | ≤ 100 µg/mL | ≤ 100 µg/mL | ≤ 100 µg/mL | ≤ 100 µg/mL | MIC (μg/mL) Saccharomyces cerevisiae AR 400 [16]: ≤ 100 µg/mL
TVGGLVKWILDTVKKFA-NH2 [STIP3-27, TVGGLVKWILDTVKKFA-NH2] | 50 | 50 | 25 µg/mL | 25 | 50 µg/mL | 25 | 25 µg/mL | 25 | 25 | 25 µg/mL | 50 µg/mL | > (values below the line were determined using two concentrations of peptide 200 or 100 μg/mL) | > (values below the line were determined using two concentrations of peptide 200 or 100 μg/mL) | > (values below the line were determined using two concentrations of peptide 200 or 100 μg/mL) | > (values below the line were determined using two concentrations of peptide 200 or 100 μg/mL) | > (values below the line were determined using two concentrations of peptide 200 or 100 μg/mL) | ≤ 100 µg/mL | ≤ 100 µg/mL | ≤ 100 µg/mL | ≤ 100 µg/mL | MIC (μg/mL) Saccharomyces cerevisiae AR 400 [16]: ≤ 100 µg/mL

Reference: patent US12370235B2, “Synthetic, non-natural antimicrobial peptides inspired by Staphylococcus auricularis delta toxin” (University of Saskatchewan, priority 2021, dated 2025)
